Reference: patent US20030203819A1, “Synergistically acting herbicidal mixtures” (priority 1998, published 2003)

What was measured:
Format in all cases: in vivo
Sorghum halepense = assay: Herbicidal action in the field (post-emergence treatment); conditions: for Damage (%): Sorghum halepense, field, post-emergence, Ia.33 75 g/ha a.s.
Text: (§1) The mixtures according to the invention were applied pre- or post-emergence (foliar treatment). The herbicidal compounds of component B were applied in the formulation in which they are present as commercially available product.
(§2) Some of the experiments were greenhouse experiments and some were field trials on mini plots (on a site with sandy loam (pH 6.2 to 7.0) or sandy clay (pH 5.0 to 6.7) as the soil).
(§3) The harmful plants differed with regard to size and developmental state; on average, they were 5 to 20 cm long, depending on the growth habit.
(§4) The herbicidally active compounds of components A) and B) were applied in succession or jointly, in the latter case in some cases as a tank mix and in some cases as a readymix, in the form of emulsions, aqueous solutions or suspensions, the vehicle being water ([…]). In the case of the field trials, application was effected with the aid of a mobile plot sprayer.
(§5) The test period extended over 3 to 8 weeks, and the stands were also observed at later points in time.
(§6) Damage by the herbicidal compositions was evaluated with reference to a scale of 0% to 100% in comparison with untreated control plots. 0 means no damage and 100 means complete destruction of the plants.
(§7) In these examples, the value E at which only an additive effect of the individual active ingredients is to be expected was calculated by the method of S. R. Colby (Calculating synergistic and antagonistic responses of herbicide combinations, Weeds 15, 20 pp (1967).

Galium aparine = assay: as above; conditions: Ia.33 1.9 g/ha a.s.
Text: as §1, §2, §3, §4, §5, §6, §7

Sorghum bicolor = assay: as above
Text: as §1, §2, §3, §4, §5, §6, §7

Ipomoea lacunosa = assay: as above; conditions: Ia.33 75 g/ha a.s.
Text: as §1, §2, §3, §4, §5, §6, §7

Setaria faberi [1] = assay: as above; conditions: Ia.33 75 g/ha a.s.
Text: as §1, §2, §3, §4, §5, §6, §7

Panicum miliaceum = assay: as above; conditions: Ia.33 50 g/ha a.s.
Text: as §1, §2, §3, §4, §5, §6, §7

Zea mays = assay: Phytotoxicity to crop plant in the greenhouse (post-emergence treatment)
Text: as §1, §2, §4, §5, §6, §7

Amaranthus retroflexus [2] = assay: Herbicidal action in the greenhouse (post-emergence treatment); conditions: Amaranthus retroflexus, post-emergence
Text: as §1, §2, §3, §4, §5, §6, §7

Echinochloa crus-galli [3] = assay: as above
Text: as §1, §2, §3, §4, §5, §6, §7

Abutilon theophrasti = assay: as above; conditions: Ia.33 7.8 g/ha a.s.
Text: as §1, §2, §3, §4, §5, §6, §7

Veronica ssp. = assay: as above
Text: as §1, §2, §3, §4, §5, §6, §7

Ipomoea ssp. = assay: as above
Text: as §1, §2, §3, §4, §5, §6, §7

Alopecurus myosuroides = assay: as above
Text: as §1, §2, §3, §4, §5, §6, §7

Setaria faberi [4] = assay: as above; conditions: Ia.33 7.8 g/ha a.s.
Text: as §1, §2, §3, §4, §5, §6, §7

Amaranthus retroflexus [5] = assay: Herbicidal action in the field (post-emergence treatment); conditions: dicamba 280 g/ha a.s.
Text: as §1, §2, §3, §4, §5, §6, §7

Cyperus iria = assay: as above; conditions: benthiocarb 3000 g/ha a.s.
Text: as §1, §2, §3, §4, §5, §6, §7

Echinochloa crus-galli [6] = assay: Herbicidal action in the greenhouse (pre-emergence treatment); conditions: S-Metolachlor 62.5 g/ha a.s.
Text: as §1, §2, §3, §4, §5, §6, §7

Digitaria sanguinalis = assay: as above; conditions: S-Metolachor 125 g/ha a.s.
Text: as §1, §2, §3, §4, §5, §6, §7

Setaria viridis = assay: as above; conditions: S-Metolachlor 62.5 g/ha a.s.
Text: as §1, §2, §3, §4, §5, §6, §7

In the case of Cc1c(C(=O)c2cnn(C)c2O)ccc(S(C)(=O)=O)c1C1=NOCC1 [Ia.33, 4-[2-methyl-3-(4,5-dihydroisoxazol-3-yl)-4-methylsulfonylbenzoyl]-1-methyl-5-hydroxy-1H-pyrazole], the Damage (Sorghum halepense; Ia.33 75 g/ha a.s. (Table 32)) is reported as 78%, the Damage (Sorghum halepense; Ia.33 75 g/ha a.s. (Table 42)) is reported as 78% and the “Damage (%)” value (Sorghum halepense; Table 78) is reported as 78%. For the same compound, the “Damage (%)” value (Sorghum halepense; Table 79) was 78%, the Damage (Galium aparine) was 20% and the Damage (Sorghum bicolor; Ia.33 75 g/ha a.s. (Table 73)) was 78%. For the same compound, the Damage (Ipomoea lacunosa) was 69%, the “Damage (%)” value (Ipomoea lacunosa; Table 81, Ipomoea lacunosa, field, post-emergence) was 69% and the Damage (Setaria faberi [1]) was 65%. The “Damage (%)” value (Setaria faberi [1]; Table 82, Setaria faberi, field, post-emergence) was 65%, the Damage (Panicum miliaceum) was 87% and the “Phytotoxicity (%)” value (Zea mays; Table 84, Ia.33 62.5 g/ha a.s.) was 0%. For the same compound, the pest or weed control at 1.9 g/ha (Amaranthus retroflexus [2]; read-out: Damage, Ia.33 1.9 g/ha a.s.) was 30%, the pest or weed control at 7.8 g/ha (Amaranthus retroflexus [2]; read-out: Damage, Ia.33 7.8 g/ha a.s.) was 70% and the Damage (Echinochloa crus-galli [3]; Ia.33 1.9 g/ha a.s.) was 55%. It also gave a Damage (Echinochloa crus-galli [3]; Ia.33 15.6 g/ha a.s.) of 90%, a Damage (Abutilon theophrasti) of 90% and a Damage (Veronica ssp.; Ia.33 15.6 g/ha a.s.) of 60%. It also gave a Damage (Veronica ssp.; Ia.33 62.5 g/ha a.s. (Table 18)) of 20%, a Damage (Veronica ssp.; Ia.33 62.5 g/ha a.s. (Table 51)) of 80% and a Damage (Ipomoea ssp.; Ia.33 3.9 g/ha a.s.) of 50%. It also gave a Damage (Ipomoea ssp.; Ia.33 62.5 g/ha a.s.) of 80%, a Damage (Alopecurus myosuroides; Ia.33 15.6 g/ha a.s.) of 40% and a Damage (Alopecurus myosuroides; Ia.33 62.5 g/ha a.s. (Table 19)) of 40%. For the same compound, the Damage (Alopecurus myosuroides; Ia.33 62.5 g/ha a.s. (Table 62)) was 40% and the Damage (Setaria faberi [4]) was 90%.

In the case of COc1c(Cl)ccc(Cl)c1C(=O)O [dicamba, reference compound], the Damage (Amaranthus retroflexus [5]) is reported as 25% and the Damage (Sorghum bicolor; dicamba 560 g/ha a.s.) is reported as 17%.

In the case of CCN(CC)C(=O)SCc1ccc(Cl)cc1 [benthiocarb], the Damage (Cyperus iria) is reported as 50%.

For CCc1cccc(C)c1N(C(=O)CCl)[C@@H](C)COC [S-Metolachlor, S-metolachlor, reference compound], the Damage (Echinochloa crus-galli [6]) was 65%, the Damage (Digitaria sanguinalis) was 50% and the Damage (Setaria viridis) was 70%. The “Phytotoxicity (%)” value (Zea mays; Table 84, S-Metolachlor 125 g/ha a.s.) was 0%, the Damage (Veronica ssp.; S-Metolachlor 125 g/ha a.s.) was 0% and the Damage (Ipomoea ssp.; S-Metolachlor 62.5 g/ha a.s.) was 0%.
